In US20030144310A1 (priority 2001, published 2003):

Columns and labels:
[1] = tested on: rat bladder; assay: Distension-induced rhythmic contraction (DIRC) model, micturition reflex; assay type: in vivo; conditions: i.v.; for inhibition of bladder activity, persisted for: anesthetized rat, figure legend (FIG. 1, FIG. 2)
Procedure: The effects of compounds on the micturition reflex were assessed in the “distension-induced rhythmic contraction” (DIRC) model (also called “volume-induced rhythmic contraction” model) in rats, as described in previous publications (e.g. Maggi, et al., 1987; Morikawa, et al., 1992; Guarneri, et al., 1993). This model is widely considered to be predictive for the actions of drugs to treat human urge incontinence (also referred to as detrusor instability or unstable bladder). Examples of drugs that are active in this model which also are used therapeutically in humans include oxybutynin and baclofen (Morikawa et al, 1992); imipramine and nortriptyline (36); and nifedipine and terodiline (37).
Female Sprague Dawley rats weighing approximately 300 g were anesthetized with subcutaneous urethane ([…]). The trachea was cannulated with PE240 tubing to provide a clear airway throughout the experiment. A midline abdominal incision was made and the left and right ureters were isolated. The ureters were ligated distally (to prevent escape of fluids from the bladder) and cannulated proximally with PE10 tubing. The incision was closed using 4-0 silk sutures, leaving the PE10 lines routed to the exterior for the elimination of urine. The bladder was canulated via the transurethral route using PE50 tubing inserted 2.5 cm beyond the urethral opening. This cannula was secured to the tail using tape and connected to a pressure transducer. To prevent leakage from the bladder, the cannula was tied tightly to the exterior urethral opening using 4-0 silk.
To initiate the micturition reflex, the bladder was first emptied by applying pressure to the lower abdomen, and then filled with normal saline in 100 μL increments (maximum=2 ml) until spontaneous bladder contractions occurred (typically 20-40 mmHg) at a rate of one contraction every 2 to 3 minutes. Once a regular rhythm was established, vehicle (saline) or test compounds were administered i.v. to examine their effects on bladder activity. The effect of a compound which inhibited the micturition reflex was expressed as its “disappearance time”, defined as the time between successive bladder contractions in the presence of the test compound minus the time between contractions before compound administration.
Female Sprague Dawley rats weighing approximately 300 g were anesthetized with subcutaneous urethane (1.2 g/kg). The trachea was cannulated with PE240 tubing to provide a clear airway throughout the experiment. A midline abdominal incision was made and the left and right ureters were isolated. The ureters were ligated distally (to prevent escape of fluids from the bladder) and cannulated proximally with PE10 tubing. […]

[2] = molecular target: T1, rNPFF-1 (Rattus norvegicus, UniProt Q9EP86); assay: Radioligand binding assay, competitive displacement of [125I]1DMeNPFF at cloned NPFF receptors; conditions: cloned rat receptor
T1 construct: expressed in transfected cells

[3] = molecular target: T2, rNPFF-2 (Rattus norvegicus, UniProt Q9EQD2); assay: as above; conditions: cloned rat receptor
T2 construct: expressed in transfected cells

[4] = molecular target: T1, rNPFF-1; assay: Functional activity (EC50 and intrinsic activity relative to NPFF); assay type: cell-based; conditions: for Functional Activity rNPFF-1 I.A. %: intrinsic activity as percentage of maximal response by NPFF; for EC50: tested 0.001 nM to 3600 nM
Excerpt: (§1) The data shown are representative of at least two independent experiments.

[5] = molecular target: T2, rNPFF-2; assay: as above; assay type: cell-based; conditions: for Functional Activity rNPFF-2 I.A. %: intrinsic activity as percentage of maximal response by NPFF; for EC50: tested 0.001 nM to 3600 nM, read-out: Functional Activity rNPFF-2 EC50
Excerpt: as §1

T2 sequence (Q9EQD2 whole entry): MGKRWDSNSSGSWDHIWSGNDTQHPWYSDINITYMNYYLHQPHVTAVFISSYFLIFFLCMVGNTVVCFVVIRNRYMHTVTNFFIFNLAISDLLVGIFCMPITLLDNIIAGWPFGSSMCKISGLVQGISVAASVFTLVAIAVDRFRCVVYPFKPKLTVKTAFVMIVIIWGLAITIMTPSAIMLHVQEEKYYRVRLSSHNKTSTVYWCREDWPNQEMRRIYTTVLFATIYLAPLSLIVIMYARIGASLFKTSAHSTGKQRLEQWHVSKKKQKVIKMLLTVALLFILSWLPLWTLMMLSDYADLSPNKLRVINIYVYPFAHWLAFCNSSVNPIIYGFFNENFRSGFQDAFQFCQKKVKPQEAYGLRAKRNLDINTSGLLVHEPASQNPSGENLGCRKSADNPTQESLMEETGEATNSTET
T1 sequence (Q9EP86 whole entry): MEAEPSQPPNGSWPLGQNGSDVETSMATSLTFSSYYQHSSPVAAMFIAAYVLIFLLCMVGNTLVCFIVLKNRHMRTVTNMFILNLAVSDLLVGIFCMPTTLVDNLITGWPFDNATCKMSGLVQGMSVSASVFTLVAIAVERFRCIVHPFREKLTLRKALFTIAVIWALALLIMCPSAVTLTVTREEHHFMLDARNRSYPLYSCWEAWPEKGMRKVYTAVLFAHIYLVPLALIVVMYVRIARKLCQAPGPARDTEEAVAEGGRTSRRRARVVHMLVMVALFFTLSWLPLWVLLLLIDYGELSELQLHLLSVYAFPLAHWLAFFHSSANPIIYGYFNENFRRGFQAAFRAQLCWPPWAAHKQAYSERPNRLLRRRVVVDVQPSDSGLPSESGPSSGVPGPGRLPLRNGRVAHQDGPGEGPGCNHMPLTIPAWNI

Ki [2] [nM]	Ki [3] [nM]	Functional Activity rNPFF-1 I.A. % [4] [%]	EC50 [4] [nM]	Functional Activity rNPFF-2 I.A. % [5] [%]	EC50 [5] [nM]	SMILES	inhibition of distention induced contractions of the rat bladder ([1]; 3 mg/kg)	inhibition of bladder activity, persisted for [1] [min]	inhibition of distention induced contractions of the rat bladder ([1]; 1 mg/kg)
						Cc1ccc2c(C)cc(NC(=N)N)nc2c1 [N-(4,7-dimethyl-2-quinolinyl)guanidine]	complete inhibition	12	
						Cc1cc(NC(=N)N)nc2ccc(Cl)cc12 [N-(6-chloro-4-methyl-2-quinolinyl)guanidine]		35	complete inhibition
815	3370	56	2200	45	> 3160	N=C(N)NCCC[C@H](NS(=O)(=O)c1c(Cl)cccc1Cl)C(=O)N[C@@H](Cc1ccccc1)C(N)=O [Compound 1019]			
1950	5150	01	> 10000	02	> 10000	N=C(N)NCCC[C@H](NS(=O)(=O)c1cc(Cl)sc1Cl)C(=O)N[C@@H](Cc1ccccc1)C(N)=O [Compound 1020]			
136	1250	88	139	89	846	N=C(N)NCCC[C@H](NS(=O)(=O)c1cccc([N+](=O)[O-])c1)C(=O)N[C@@H](Cc1ccccc1)C(N)=O [Compound 1002]			
88	2310	106	524	96	2520	CN(C)c1cccc2c(S(=O)(=O)N[C@@H](CCCN=C(N)N)C(=O)N[C@@H](Cc3ccccc3)C(N)=O)cccc12 [dansyl-RFamide, reference compound]			

SMILES	Ki [2] [nM]	Ki [3] [nM]	Functional Activity rNPFF-1 I.A. % [4] [%]	EC50 [4] [nM]	Functional Activity rNPFF-2 I.A. % [5] [%]	EC50 [5] [nM]	inhibition of distention induced contractions of the rat bladder ([1]; 3 mg/kg)	inhibition of bladder activity, persisted for [1] [min]	inhibition of distention induced contractions of the rat bladder ([1]; 1 mg/kg)
N=C(N)NCCC[C@@H](NS(=O)(=O)c1ccc(F)cc1)C(=O)N[C@@H](Cc1ccccc1)C(N)=O [Compound 1028]	1280	8060		404	62	1580			
N=C(N)NCCC[C@H](NS(=O)(=O)c1ccc(F)cc1)C(=O)N[C@H](Cc1ccccc1)C(N)=O [Compound 1033]	458	> 10000	42	1600	57	1940			
